Common to all, as to settings: rat; in vivo; po
Series [1] can be described thus: Very toxic (VT; LD50≤50mg/kg vs. all others). The text has this: (§1) […]The data set underlying the modeling effort for this project was initially compiled by NICEATM and U.S. EPA’s CCTE. Briefly, LD50 data were collected from rat acute oral systemic toxicity tests, including limit tests, ranges/confidence intervals, and discrete LD50 values. The full data set included 21,200 LD50 entries for 15,688 substances. […] Data were reviewed to ensure that LD50 values with obvious errors in the extracted data such as unit conversion errors (e.g., comma and decimal separator misplacements) were either fixed or removed. After this review, 16,209 LD50 values remained. Many of the chemicals represented had multiple LD50 entries, requiring that a single representative value per Chemical Abstracts Service Registry Number (CASRN) identifier be defined to facilitate modeling efforts. Based on ATWG feedback and to define the representative LD50 as a protective value while accounting for the distribution across multiple LD50s, the median of the lowest quartile was computed using only discrete LD50 values (omitting limit test data and range and confidence interval data). A detailed summary of the data compilation is available online on the NICEATM webpage dedicated to the collaborative modeling project (NTP 2020).
(§2) […][…] For categorical designations, limit test and range/confidence interval LD50 data were integrated wherever possible. As such, the number of chemicals with end point values/calls varies across the modeling end points (Table 3) based on whether chemicals had representative LD50 values and/or other data. If a chemical had both, the representative value was used to determine categorical calls rather than limit test data. Some data were useable only for certain end points and categories depending on the thresholds. For example, ranges that spanned multiple hazard categories were considered only for the binary (very toxic/nontoxic) end points and omitted from rendering a determination for hazard category assignment.
(§3) […]The final data set comprising 11,992 chemicals was split into training and evaluation sets […], respectively. This process was performed semirandomly by ordering chemicals based on the five end points (categorical and continuous LD50 values) and partitioning every fourth record into the evaluation set accordingly. This approach was taken to ensure an equivalent distribution of the LD50 values and the different hazard categories between the training and the evaluation sets without supervised sampling of the chemicals based on structures (Figure 1A). The sources of the chemical structures were also kept equivalent between the two sets, with chemical structures obtained from DSSTox, being the highest quality, representing over 75% of each set (Figure 1B).

The nature of another series: EPA categories.
Source text: as §1, §2, §3

Series [2] can be described thus: Nontoxic (NT; LD50>2,000mg/kg vs. all others).
Source text: as §1, §2, §3

From the CATMoS acute toxicity set (Mansouri et al. 2021) come the findings set out here.

As to `CSc1c(C)cc(O)cc1C`, in series [1], the very_toxic result is reported as “FALSE (not_very_toxic)”.

For `O=[N+]([O-])c1cc(N(CCO)CCO)ccc1NCCO`, the EPA category in the series “EPA categories” was found to be 3.

On to `CCCCCCCCCCCCCC[N+](C)(C)[O-]`, for which, in series [1], the very_toxic result is “FALSE (not_very_toxic)”.

Consider `CC(Cl)(Cl)CC(Cl)(Cl)Cl`, for which the EPA category in the series “EPA categories” is recorded as 2.

As to `O=C1NC(=O)C2CCCC12` (stereo not drawn), the very_toxic entry in series [1] is listed as “FALSE (not_very_toxic)”.

In the case of `Nc1ccc(N)c2c1C(=O)c1c(N)ccc(N)c1C2=O`, in series [1], the very_toxic result was “FALSE (not_very_toxic)”.

As to `CNC1=C(c2cccc(C(F)(F)F)c2)C(=O)C(c2ccccc2)O1` (stereo not drawn), the very_toxic result in series [1] is recorded as “FALSE (not_very_toxic)”.

With `CCO[SiH](OCC)OCC`, the EPA category in “EPA categories” amounted to 3.

In the case of `COCCOCCOCCOB(OCCOCCOCCOC)OCCOCCOCCOC`, the very_toxic entry in series [1] is listed as “FALSE (not_very_toxic)”.

With `CCCCCCCCCCCCCCCCCCOP1OCC2(CO1)COP(OCCCCCCCCCCCCCCCCCC)OC2` (stereo not drawn), the very_toxic result in series [1] was “FALSE (not_very_toxic)”.

In the series “EPA categories”, `Cc1cccc(S(=O)(=O)O)c1C` had an EPA category of 3.

In “EPA categories”, `Cc1cncc(C)c1` showed an EPA category of 2.

In turn, `NC(N)=Nc1ccccc1` showed an EPA category in “EPA categories” of 3.

As to `CN(C)CCOCCOC(=O)NCC1(C)CC(NC(=O)OCCOCCN(C)C)CC(C)(C)C1` (stereo not drawn), the nontoxic entry in series [2] was “FALSE (not_nontoxic)”.

With `CCC(C)c1cccc(C(C)CC)c1O` (stereo not drawn), in series [2], the nontoxic entry is “FALSE (not_nontoxic)”.

On to `CC1(C(=O)Cl)CCCCC1`, for which, in series [2], the nontoxic result is recorded as “FALSE (not_nontoxic)”.

For the compound `C[Si](Cl)(Cl)CCCCl`, the nontoxic result in series [2] is on record as “FALSE (not_nontoxic)”.

As for `O=C1c2cccc(Sc3ccccc3)c2C(=O)c2c(Sc3ccccc3)cccc21`, the EPA category in “EPA categories” was 3.
